Entries after “also recorded” stand apart in the source; their conditions may differ.
Tests used:
[1] = Serum levels after single dose IP or oral gavage; assay type: in vivo, mice
Protocol: To assess oral bioavailability, K118 and K161 were administered in a single dose of 10 mg/kg either by IP or by oral gavage, and levels of each were measured in serum (FIG. 14).

[2] = test system: BV2 cells; test: Phagocytosis of FITC-labeled amyloid beta (1-42), BV2 cells (flow cytometry, confocal); assay type: cell-based; settings: for beta amyloid phagocytosis: BV2 cells, 16 hours, 3.75 μM, then 1 hour beta amyloid-FITC
Protocol: It was investigated if the enhanced phagocytic activity of microglia towards lysotracker and dead neurons extended to the enhanced phagocytosis of amyloid proteins. Flow cytometric assays were conducted to detect and compare the ability of SHIP inhibitor compounds to enhance the phagocytosis of amyloid beta 1-42 coupled to FITC. These assays provided a means to compare the ability of SHIP inhibitor compounds to promote a crucial effector function of microglia in the brain that is highly relevant for the pathology of Alzheimer's disease.
Cells were then washed twice and analyzed by flow cytometry for the presence of FITC-labeled amyloid beta (1-42). […] FIG. 7F-H show the confocal images of fixed BV2 cells incubated with beta amyloid with and without K161.

[3] = test system: p-mTOR (Ser2448) and p-S6 in BV2 cells; test: Western blotting and intracellular flow of signaling kinases, BV2 cells; assay type: cell-based; settings: for mTOR phosphorylation at Ser2448: microglia (BV2), Western blotting / icFlow
Protocol: (§1) Using both Western blotting and intracellular flow (icFlow) assays activation of key signaling kinases that are known to control proliferation, survival and effector functions in immune cells were examined. This included probing for phosphorylated forms of Akt, ERK, mTOR (p-mTOR) and S6 (p-S6). BV2 cells were incubated with a series of pan-SHIP inhibitors. […] In FIG. 8E, the effect of 3AC on BV2 cells is depicted, as assessed by Western Blotting, with actin and HSP90 as loading controls.

[4] = test system: AKT, p-mTOR, p-S6 in primary microglia cells; test: Expression of signaling kinases, primary microglia; assay type: cell-based, mouse
Protocol: as §1

[5] = test system: primary microglia; test: Phagocytosis of FITC-labeled amyloid beta, primary microglia (flow cytometry); assay type: cell-based, mouse; settings: 16 hours, 1.25 μM, then 1 hour beta amyloid-FITC
[6] = Detection of K161 in brain tissue by mass spectrometry after single dosing; assay type: in vivo; settings: mice; for detection in brain tissue: 48 hr or 96 hr after administration, mass spectrometry
Protocol: Tissues were harvested 48 hr or 96 hr after administration, and K161 was detected by mass spectrometry and quantitated against a known concentration of K161 spiked into either serum or brain tissue homogenate (FIG. 13A). The calibration curves for K161 are shown in FIGS. 13B and 13C, with the added experimental data points in FIG. 13D. The concentrations of K161 in the brain tissue samples were calculated from the linear characteristics of the standard curve FIG. 13E.

[7] = test system: CD11b+CD45low cell population (microglial cells) of the cerebral hemispheres; test: K161-treated mice: phagocytic activity of brain cell populations; assay type: in vivo
Protocol: In a subsequent experiment, mice were treated twice a week for two weeks with K161. A single cell suspension of the cerebral hemispheres was prepared from K161 (10 mg/kg) and vehicle (H20)-treated mice (n=10/group). Mice were treated twice a week for two weeks, the brains harvested by flow cytometry (FIG. 12A). Box & whisker plots of frequency of single population gated on live cells singlets for markers CD11b, CD45 and ACSA2 (FIG. 12B). The ability of the various cell types to phagocytose dead neurons, beta amyloid and LysoTracker in the absence or presence of K61 are shown in FIG. 12I to 12K. A single cell suspension of the cerebral hemispheres was prepared from K161 (10 mg/kg) and vehicle (H2O)-treated mice (n=10/group). Mice were treated twice a week for two weeks, the brains harvested by flow cytometry. Box & whisker plots of dead neuron (FIG. 12I), beta amyloid (FIG. 12J) and lysotracker assay (FIG. 12K) are shown on a single brain population gated on live cells, singlets and surface markers CD11b, CD45 and ACSA2.
Therefore, SHIP inhibitors, and particularly those that inhibit both SHIP1 and SHIP2, or selectively SHIP2 (e.g., AS1949490—available from commercial suppliers such as Sigma Aldrich and Tocris), can increase microglial phagocytic capacity to remove dead neurons from the CNS.

[8] = test system: primary microglia; test: Phagocytosis of PI-stained dead neurons, primary microglia (flow cytometry); assay type: cell-based, mouse
From the text: (§2) Next it was investigated if microglial can phagocytose dead neurons, and to what extent the phagocytosis of dead neurons is enhanced by SHIP inhibitors. Dead neurons were stained with propidium iodide. Propidium iodide is a fluorescent compound that binds to a cell's DNA and can be used to stain dead cells. The phagocytosis of propidium iodide (PI)-stained dead neurons by microglia was investigated by flow cytometry (FIG. 6). […] (FIG. 6C). […] Pan-SHIP inhibition increased phagocytic activity of microglial cells towards dead neurons.

[9] = test system: BV2 cells; test: Phagocytosis of PI-stained dead neurons, BV2 cells (flow cytometry); assay type: cell-based; settings: for phagocytosis of dead neurons, selective inhibitors alone or combined: BV2 cells (FIG. 6C)
From the text: as §2

[10] = test system: BV2 cells; test: LysoTracker Red staining of lysosomal/phagosomal compartment, BV2 cells (flow cytometry, confocal); assay type: cell-based; settings: for LysoTrackerRed MFI (phagosomal compartment size): BV2 cells treated 16 hr, 3.75 μM and 5 μM, vs diluent control; for phagosomal compartment size (LysoTrackerRed staining): BV2 cells treated 20 hr, 50 nM LysoTrackerRed
Protocol: Flow cytometric assays were conducted to detect and compare the ability of SHIP inhibitor compounds to increase the phagocytic capacity of microglia as determined by LysoTracker Red staining which is preferentially retained and fluoresces in the acidic environment of the lysosomal/phagosomal subcellular compartment. BV2 cells were treated for 20 hr with 3AC, K118 or K149 at the indicated doses vs. their respective diluent controls, washed twice and incubated with 50 nM LysoTrackerRed and then analyzed by flow cytometry (FIG. 5). Histograms of the LysoTrackerRed staining for each compound at the indicated dose or their diluent control (0 μM) are shown. […] K118 repeated towards BV2 cells (FIG. 5D, 5E) and primary microglial cells (FIG. 5F, 5G). BV2 cells were treated for 16 hr with the indicated K118 concentration and incubated with LysoTrackerRed (50 nM), washed twice and then analyzed by flow cytometry and compared to similarly treated vs. their diluent control primary microglia (0.5% DMSO). Histograms of LysoTrackerRed staining for K118 (Red-3.75 μM, Green-5 μM) or diluent control (Blue, shaded) are shown. In FIG. 5E, line and whisker plots are shown for the mean fluorescence intensity (MFI) of LysoTrackerRed staining at the indicated concentrations of K118.
Pan-SHIP1/2 inhibition increased microglial lysosomal/phagosomal compartment.

[11] = test system: BV2 cells; test: CCK-8 assay of cell growth, BV2 cells; assay type: cell-based; settings: 48 hr
Protocol: (§3) The ability of 3AC, K118 and K149 to promote the proliferation of BV2 and SIM-A9 microglial cells was tested in vitro. Cells were counted with a cell counting kit-8 (e.g. CCK-8) which is a sensitive colorimetric assays for the determination of cell viability in cell proliferation and cytotoxicity assays. It uses the highly water-soluble tetrazolium salt, WST-8, which is reduced by dehydrogenase activities in cells to give a yellow-color formazan dye, which is soluble in the tissue culture media. The amount of the formazan dye, generated by the activities of dehydrogenases in cells, is directly proportional to the number of living cells.
(§4) A CCK-8 assay was performed for analysis of cell growth of BV2 cells (FIG. 4A), and SIM-A9 cells (FIG. 4B) vs. their respective vehicle controls (100%) at 48 hr. Each point represents the mean of the 6 replicates for each dose.

[12] = test system: SIM-A9 cells; test: CCK-8 assay of cell growth, SIM-A9 cells; assay type: cell-based; settings: 48 hr
Protocol: as §3, §4

[13] = test system: SIM-A9 cells; test: Phagocytosis of PI-stained dead neurons, SIM-A9 cells (flow cytometry); assay type: cell-based; settings: Torin with K161
From the text: as §2

[14] = 10 mg/kg twice a week for two weeks, vs vehicle

**Q.** For `Cc1c(CCN)c2ccccc2n1Cc1ccccc1Cl.Cl`, which melting point is on record?
**A.** The melting point was 161 to 169 °C.

**Q.** With `CC[C@H]1CC[C@H]2[C@@H]3C[C@@H](O)C4C[C@H](N)CC[C@]4(C)[C@H]3CC[C@]12C` (stereo partly shown) as the compound, how does the melting point read?
**A.** The melting point was 193 to 195 °C.

**Q.** For `C[C@@]12CCC[C@H]1C1CC[C@H]3C[C@H](N)[C@H](N)C[C@]3(C)[C@H]1CC2.Cl.Cl` (stereo in doubt) [K161, (2R,3S,5S,8R,9S,10S,13S,14S)-10,13-dimethylhexadecahydro-1H-cyclopenta[a]phenanthrene-2,3-diaminium Chloride], which “decay in vivo, compared” value ([1]; mouse, in vivo, 10 mg/kg) is on record?
**A.** The value was “decay more rapidly in vivo than K118”.

**Q.** And the oral bioavailability ([1]; single dose 10 mg/kg IP or oral gavage, levels in serum)?
**A.** The oral bioavailability was “have oral bioavailability”.

**Q.** What about the beta amyloid phagocytosis [2] of the same compound?
**A.** The beta amyloid phagocytosis was “Significant increases in beta amyloid phagocytosis; also recorded: significantly increased”.

**Q.** And the “phagosomal component, confocal images” value ([2]; fixed BV2 cells incubated with beta amyloid)?
**A.** Its value is “the phagosomal component is increased”.

**Q.** And the p-S6 expression ([3]; BV2 cells)?
**A.** Its p-S6 expression is “increase in p-S6 expression”.

**Q.** And the “p-mTOR (Ser2448) expression, mean fluorescence intensity” value ([3]; BV2 cells, 16 hr, intracellular flow)?
**A.** The value was “significantly increased p-MTOR expression”.

**Q.** And the “mTOR phosphorylation at Ser2448” value [3]?
**A.** The value was “increase mTOR phosphorylation at Ser2448”.

**Q.** What about the “activation of AKT” value [4] of the same compound?
**A.** The value was “activated AKT”.

**Q.** What about the “activation of p-S6” value [4] of the same compound?
**A.** The value was “not p-mTOR or p-S6”.

**Q.** What about the “activation of p-mTOR” value [4] of the same compound?
**A.** Its value is “not p-mTOR or p-S6”.

**Q.** What about the beta amyloid phagocytosis [5] of the same compound?
**A.** The beta amyloid phagocytosis was “Significant increases in beta amyloid phagocytosis”.

**Q.** And the “blood brain barrier penetration” value ([6]; 10 mg/kg IP or oral gavage)?
**A.** The value was “can penetrate the blood brain barrier”.

**Q.** And the “detection in brain tissue” value ([6]; 10 mg/kg IP)?
**A.** Its value is “detectable in the brain tissue”.

**Q.** And the “detection in brain tissue” value ([6]; 10 mg/kg oral gavage)?
**A.** Its value is “detectable in the brain tissue”.

**Q.** What about the “ability to phagocytose beta amyloid, CD11b+CD45low cells” value [7, 14] of the same compound?
**A.** Its value is “increased ability to phagocytose dead neurons and beta amyloid”.

**Q.** What about the “ability to phagocytose dead neurons, CD11b+CD45low cells” value [7, 14] of the same compound?
**A.** The value was “increased ability to phagocytose dead neurons and beta amyloid”.

**Q.** What about the “size of the phagosomal compartment in subsets of microglial cells in the brain” value ([7]; intraperitoneal injection twice a week for two weeks) of the same compound?
**A.** Its value is “increased the size of the phagosomal compartment”.

**Q.** And the “phagocytic activity towards dead neurons” value ([8]; primary microglia, 16 hr, 1.25 μM)?
**A.** The value was “enhanced the phagocytic activity”.

**Q.** What does the source list for `CC(C)CCC[C@@H](C)[C@H]1CC[C@H]2[C@@H]3CCC4C[C@H](N)CC[C@]4(C)[C@H]3CC[C@]12C` (stereo partly shown) [3AC]?
**A.** phagocytosis of dead neurons, selective inhibitors alone or combined [9]: not either of those inhibitors alone, increased phagocytosis; mTOR phosphorylation at Ser2448 [3]: increase mTOR phosphorylation at Ser2448; LysoTrackerRed MFI (phagosomal compartment size) [10]: statistically significant increase in the phagosomal compartment size; phagosomal compartment size (LysoTrackerRed staining) [10]: only a modest increase

**Q.** Which “phagocytosis of dead neurons, selective inhibitors alone or combined” value [9] does the source give for `C[C@H](NC(=O)c1sccc1OCc1ccc(Cl)cc1)c1ccccc1` [AS1949490] here?
**A.** Its value is “not either of those inhibitors alone, increased phagocytosis”.

**Q.** With `CSc1ccc2c(c1)c(CCN)c(C)n2Cc1ccc(Cl)cc1Cl` [K149] as the compound, how does the “cell growth vs. vehicle control (100%)” value [11] read?
**A.** Its value is “showed effects at 2.5, 3.75 and 5 μM concentrations”.

**Q.** And the beta amyloid phagocytosis [2]?
**A.** The beta amyloid phagocytosis was “Significant increases in beta amyloid phagocytosis; also recorded: significantly increased”.

**Q.** What about the “mTOR phosphorylation at Ser2448” value [3] of the same compound?
**A.** Its value is “increase mTOR phosphorylation at Ser2448”.

**Q.** And the “LysoTrackerRed MFI (phagosomal compartment size)” value [10]?
**A.** Its value is “statistically significant increase in the phagosomal compartment size”.

**Q.** What about the “phagosomal compartment size (LysoTrackerRed staining)” value [10] of the same compound?
**A.** Its value is “robust increases”.

**Q.** And the “cell growth (proliferation) vs. vehicle control (100%)” value [12]?
**A.** The value was “an effect on proliferation was observed”.

**Q.** For Torin, which “effect on K161-enhanced phagocytosis of dead neurons” value (from here on “effect on K161-enhanced phagocytosis”) ([9]; BV2 cells, Torin with K161) is on record?
**A.** The value was “did not abolish the increase in phagocytosis of dead neurons by K161”.

**Q.** And the “effect on K161-enhanced phagocytosis” value ([8]; primary microglial cells, Torin with K161)?
**A.** The value was “did not abolish the increase in phagocytosis of dead neurons by K161”.

**Q.** What about the “effect on K161-enhanced phagocytosis” value [13] of the same compound?
**A.** Its value is “did not abolish the increase in phagocytosis of dead neurons by K161”.
